Values of other authors in patent US7625919B2, “4-azasteroid derivatives as androgen receptor modulators” (priority 2002, dated 2009).

How the values were obtained:
[1] = after 7 years of treatment
[2] = postmenopausal osteoporotic women, median of 22 months of treatment

Molecule	increase in spinal BMD [1] [%]	reduction in nonvertebral fractures [2] [%]	reduction in spine fractures [2] [%]
NCCCC(O)(P(=O)([O-])O)P(=O)(O)O.O.O.O.[Na+] [alendronate, (4-amino-1-hydroxybutylidene)-bis-phosphonate monosodium trihydrate]	11		
hPTH(1-34): human parathyroid hormone 1-34 fragment (SVSEIQLMHNLGKHLNSMERVEWLRKKLQDVHNF; Parathyroid hormone; UniProt P01270 32-65, looked up, fragment)		54	≥ 65
